In PMC9114799, “In vitro Evaluation of Isoniazid Derivatives as Potential Agents Against Drug-Resistant Tuberculosis” (Frontiers in Pharmacology, 2022):
≈ marks a conversion by molar mass, not a printed value. Where two headings read alike, the source gives them in different places. Marks after values point to notes of the source that are not given here.

How the values were obtained:
[1] = system: M. tuberculosis clinical strain katG (S315T); assay type: cell-based, Mycobacterium tuberculosis
[2] = system: M. tuberculosis clinical strain katG (S315T); settings: ref Martins et al., cited from earlier work

COC(=O)c1ccc(CNNC(=O)c2ccncc2)cc1 [Compound N33red, methyl 4-((2-isonicotinoylhydrazinyl)methyl)benzoate]
activity in the mutated strain [1]: completely abolished

NNC(=O)c1ccncc1 [INH, isonicotinoylhydrazide, reference compound]
increase of MIC going from wt to S315T [1]: approximately 150 fold | MIC (katG S315T) ([2]; katG (S315T) Mtb, 2014): 43.8 ^a µM

O=C(NNCc1ccc(Oc2ccccc2)cc1)c1ccncc1 [Compound N34red, N'-(4-phenoxybenzyl)isonicotinohydrazide]
activity in the mutated strain [1]: completely abolished

COC(=O)c1ccc(/C=N/NC(=O)c2ccncc2)cc1 [Compound N33, methyl (E)-4-((2-isonicotinoylhydrazineylidene)methyl)benzoate]
activity in the mutated strain [1]: still active | increase of MIC going from wt to S315T [1]: ~20 fold | MIC (katG S315T) ([2]; katG (S315T) Mtb, 2014): 21.2 ^a µM

CCCCCCCCCC(=O)NNC(=O)c1ccncc1 [INH-C10, N′-decanoylisonicotinoylhydrazide]
gain in efficacy against katG (S315T) strain compared with INH [1]: 6 fold | increase of MIC going from wt to S315T [1]: ~20 fold | MIC (katG S315T) ([2]; Table S1, 2014 (per Table 2)): 2.0 g/mL (≈ 6860 mM) | MIC (katG S315T) ([2]; katG (S315T) Mtb, 2014): 6.9 ^a µM

O=C(N/N=C/c1ccc(Oc2ccccc2)cc1)c1ccncc1 [Compound N34, (E)-N'-(4-phenoxybenzylidene)isonicotinohydrazide]
activity in the mutated strain [1]: still active | increase of MIC going from wt to S315T [1]: ~20 fold | MIC (katG S315T) ([2]; katG (S315T) Mtb, 2014): 18.9 ^a µM
